For the experiment, the target named is T1, human polymorphonuclear leukocyte elastase (Homo sapiens, UniProt P08246).
T1 construct: Crude extract of human polymorphonuclear leukocytes (PMN) containing elastase activity; endogenous in cells; host or cells: human polymorphonuclear leukocytes (crude extract)
T1 sequence (P08246 30-247 limits assumed): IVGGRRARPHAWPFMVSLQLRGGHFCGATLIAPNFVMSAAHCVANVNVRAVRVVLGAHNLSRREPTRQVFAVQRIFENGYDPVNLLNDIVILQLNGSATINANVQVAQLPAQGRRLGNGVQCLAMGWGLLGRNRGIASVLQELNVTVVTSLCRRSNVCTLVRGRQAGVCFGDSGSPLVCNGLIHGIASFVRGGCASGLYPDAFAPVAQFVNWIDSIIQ
Briefly: Inhibition of human polymorphonuclear leukocyte (granulocyte) elastase via hydrolysis of Boc-AAPAN or Boc-AAPVN. Particulars: pH 7.5, Table VI, (per mole per second); read-out: kobs/I, second order rate constant of inactivation of the enzyme. In kind it is biochemical.
Experimental: Enzyme Assays for the Inhibition of Human Polymorphonuclear Leukocyte Elastase Via Hydrolysis of N-t-Boc-alanyl-alanyl-prolylalanine-p-nitroanilide (Boc-AAPAN) or N-t-Boc-alanyl-prolylvaline-p-nitroanilide (Boc-AAPVN) Reagent:
0.05M TES (N-tris[hydroxymethyl]methyl-2-amino-ethanesulfonic acid) Buffer, pH 7.5.
0.2 mM Boc-AAPAN or Boc-AAPVN.
To prepare substrate, the solid was first dissolved in 10.0 ml DMSO. Buffer at pH 7.5 was then added to a final volume of 100 ml.
Crude extract of human polymorphonuclear leukocytes (PMN) containing elastase activity.
Inhibitors (azetidinones) to be tested dissolved in DMSO just before use.
To 1.0 ml of 0.2 mM Boc-AAPAN in a cuvette, 0.01-0.1 ml of DMSO with or without inhibitor was added. After mixing, a measurement was taken at 410 mμ to detect any spontaneous hydrolysis due to presence of test compound. 0.05 Milliliters of PMN extract was then added and the ΔOD/min at 410 mμ was measured and recorded. Beckman model 35 spectrophotometer was used.
Results were also expressed as Ki, the micromolar concentration of the inhibitor (μM) giving 50% of the control enzyme activity; or as ^k obs/I which is the second order rate constant in per mole per second for inactivation of the enzyme.
The elastase activity in the crude PMN extract may vary from one preparation to another. A control of each new batch is run, and the volume added in the assay procedure is adjusted according to activity.
With `CCC1(CC)C(=O)N(C(=O)N[C@H](c2ccccc2)c2ccc(-c3ccccc3)cc2)[C@H]1Oc1ccc(C(=O)O)cc1` [Table VI: 4-COOH; Ph; 4-Ph], the kinact/KI stood at 67800 M⁻¹ s⁻¹.

For the molecule `CCC1(CC)C(=O)N(C(=O)N[C@H](c2ccccc2)C(C)C)[C@H]1Oc1ccc(C(=O)O)cc1` [Table VI: 4-COOH; iPr(S); H], the kinact/KI came to 4740 M⁻¹ s⁻¹.

As for `CCC1(CC)C(=O)N(C(=O)N[C@@H](c2ccccc2)C(C)C)[C@H]1Oc1ccc(C(=O)O)cc1` [Table VI: 4-COOH; iPr; H], the kinact/KI was found to be 177000 M⁻¹ s⁻¹.

As for `CCC[C@@H](NC(=O)N1C(=O)C(CC)(CC)[C@@H]1Oc1ccc(C(=O)O)cc1)c1ccc(C)cc1` [Table VI: 4-COOH; nPr; 4-Me, (4S)-3,3-diethyl-1-[(R)-α-n-propyl-(4-methyl)-benzylaminocarbonyl]-4-[(4-carboxy)phenoxy]azetidin-2-one], the kinact/KI amounted to 389000 M⁻¹ s⁻¹.

Turning to `CCC[C@@H](NC(=O)N1C(=O)C(CC)(CC)[C@@H]1Oc1ccc(CC(=O)O)cc1)c1ccc2occc2c1` [Table VI: 4-Ch2(OOH); nPr; 3,4(-CHCHO), (4S)-3,3-Diethyl-1-[[(R)-1-(benzofuran-5-yl)butylamino]carbonyl]-4-[4-(carboxymethyl)phenoxy]azetidin-2-one], the kinact/KI came to 848000 M⁻¹ s⁻¹.

Source of the values: US5229381A, “Substituted azetidinones as anti-inflammatory and antidegenerative agents” (Merck & Co., Inc., priority 1991, dated 1993).
